Measurements taken from patent publication US8338475B2, “Anti-proliferative pharmaceutical composition” (BioCis Pharma Oy, priority 2003, dated 2012).

What was measured:
Assay type in all cases: cell-based, human
HeLa cells = assay: Monitoring of intracellular pH (BCECF, flow cytometry), HeLa cells
Procedure: (§1) The cells were labelled with BCECF and placed in pH-adjusted buffer solutions with or without various concentrations of cis-UCA. Left panels, calibration of BCECF fluorescence intensity of nigericin-treated cells in high-potassium buffer as a function of buffer pH. Right panels, intracellular pH values in buffers with or without various concentrations of cis-UCA. All test buffers were adjusted to pH 7.4 (%) or pH 6.5 (+) after the addition of cis-UCA. Results were calculated using the corresponding calibration curve on the left.
(§2) Intracellular pH in the cell lines in the presence of cis-UCA was measured with the pH-sensitive fluorescent dye 2′,7′-bis-(2-carboxyethyl)-5-(and-6)-carboxyfluorescein (BCECF, acetoxymethyl ester; Molecular Probes, Leiden, The Netherlands) by flow cytometry. Two million cells were incubated in 5 ml DMEM medium (Invitrogen), pH 7.4, containing 0.35 μM BCECF at 37° C. for 30 min, washed once in sodium phosphate buffer (50 mM NaH2PO4/Na2HPO4, 43 mM NaCl), pH 7.4, and resuspended in 0.3 ml saline. Twenty μl of the cell suspension was pipetted into flow cytometry tubes. […]
(§3) Calibration of intracellular pH in situ was performed using the K^+/H^+ ionophore nigericin (Molecular Probes) in high-potassium buffers. […] Exact intracellular pH values were calculated from mean BCECF fluorescence intensities by reference with nigericin-clamped calibration cells. […]

[1] = test system: HK293 (kidney epithelial cells); assay: Proliferation assay (CellTiter 96), HK293 cells; details: pH 6.5, 44 h, cis-UCA 10 mM, CPT 2 μM, 15,000 cells per 100 μl
Excerpt: (§4) Transformed tumour cell lines WM 266-4 and A2058 (cutaneous melanoma), HT-1080 (epithelial fibrosarcoma), HeLa (epithelial adenocarcinoma of cervix), HK293 (kidney epithelial cells) and non-transformed cell line HSF (skin fibroblast from a healthy volunteer donor) of human origin have been described earlier (Li et al. 2003). The K562 (chronic myelogenous leukemia) cells were purchased from American Type Culture Collection.
(§5) The cells were maintained in logarithmic growth phase in IMDM medium (Invitrogen, Paisley, UK) supplemented with 10% fetal calf serum and antibiotics in a humidified incubator at +37° C., 5% CO2. The adherent cells lines were harvested for experiments with 0.25% trypsin-EDTA in PBS for 5 min and then resuspended and washed in medium. After counting of viable cells, 15,000 to 75,000 cells were transferred into flat-bottom 96-well cell culture plates in a volume of 100 or 150 μl.
(§6) The proliferation activity of cultured cell lines was quantified in flat-bottom 96-well plates with a modified colorimetric assay based on a tetrazolium derivative (CellTiter 96 Aqueous One Solution Cell Proliferation Assay, Promega). The cells were cultured in the presence of camptothecin and/or cis-UCA for 20 to 92 h, then the proliferation reagent was added for 2 h, and the absorbance at 490 nm was measured in a plate reader. […]

[2] = test system: A2058 (cutaneous melanoma); assay: Proliferation assay (CellTiter 96), A2058 cells
Procedure: The cells were cultured in triplicate with or without 2 μM camptothecin (CPT) or 10 mM cis-UCA in a density of 15,000 cells per […]. A, Cells taken from normal pH 7.4 cultures to test conditions at pH 6.5. B, Cells cultured in low pH 6.7 adaptation medium for 3 d, then tested at pH 6.5. C, Cells cultured and tested at pH 7.4.
Proliferation was measured in a 44-h assay at pH 6.5 with 30 μM to 30 mM cis-UCA and 2 μM camptothecin. Both proliferation (A) and calculated percentage inhibition data (B) are presented.
as §4, §5
The proliferation activity of cultured cell lines was quantified in flat-bottom 96-well plates with a modified colorimetric assay based on a tetrazolium derivative (CellTiter 96 Aqueous One Solution Cell Proliferation Assay, Promega). The cells were cultured in the presence of camptothecin and/or cis-UCA for 20 to 92 h, then the proliferation reagent was added for 2 h, and the absorbance at 490 nm was measured in a plate reader. Blank absorption values in wells containing medium without cells were subtracted before comparison analysis.
The cell lines were tested in a 44-h culture at pH 6.5 with or without 2 μM camptothecin and 10 mM cis-UCA at 15,000 cells per 100 μl total volume. […] In order to further characterise the effective anti-proliferative concentration range of cis-UCA, proliferation was measured in a 44-h assay at pH 6.5 with cis-UCA concentration ranging from 30 μM to 30 mM.

cell lines = assay: Proliferation assay, statements on the cell lines as a group; details: all three studied transformed cell lines; 44 h; pH 6.5 (FIG. 4)
Procedure: The cells were cultured for 44 h with or without 2 μM camptothecin (CPT) at pH 6.5 or 7.4 conditions. After a 2-h incubation with the proliferation assay reagent, the absorbance at 490 nm was recorded. Cells were cultured in a density of 15,000 cells (K562, HT-1080, HK293) or 75,000 cells (the other cells) in a volume of 150 μl.
Three cell lines were cultured with cis-UCA and/or 1 μM camptothecin at a density of […] per well (100 μl) for 44 h in pH 6.5 medium. Blank wells with all the cis-UCA concentrations but without cells were included and their absorbance subtracted from those of the corresponding test wells.
as §4, with “The K562 (chronic myelogenous leukemia) cells were purchased from American Type Culture Collection.” left out
as §6

A2058 cells = assay: Monitoring of intracellular pH (BCECF, flow cytometry), A2058 cells
Procedure: as §1, §2, §3

[3] = extracellular pH 6.5, highest cis-UCA concentration (30 mM)
[4] = extracellular pH 7.4, cis-UCA up to 30 mM

Question: Which “decrease of intracellular pH” value (HeLa cells; [3]) does the source give for `O=C(O)/C=C\c1c[nH]cn1` [cis-UCA, cis-urocanic acid] here?
Answer: The value was “about 0.25 pH units”.

Question: And the “intracellular pH with escalating concentrations” value (HeLa cells; [4])?
Answer: The value was “remained almost constant”.

Question: What about the “Inhibition of proliferation (mean percentage inhibition ± SD compared with untreated control)” value [1] of the same compound?
Answer: Its value is 22 ± 0.1%.

Question: And the “percentage inhibition of proliferation” value ([2]; 10 mM cis-UCA alone, cells from pH 7.4 cultures tested at pH 6.5, 92 h (FIG. 2A))?
Answer: The value was 83%.

Question: What about the “percentage inhibition of proliferation” value ([2]; 10 mM cis-UCA, cells adapted to pH 6.7 for 3 days, tested at pH 6.5, 92 h (FIG. 2B)) of the same compound?
Answer: The value was 87%.

Question: What about the “concentration required to produce measurable inhibition of proliferation” value ([2]; 44-h assay at pH 6.5, 30 μM to 30 mM tested (FIG. 3)) of the same compound?
Answer: Its value is “at least 3 mM”.

Question: What about the “Inhibition of proliferation (mean percentage inhibition ± SD compared with untreated control)” value ([2]; pH 6.5, 44 h, cis-UCA 10 mM, CPT 2 μM, 15,000 cells per 100 μl) of the same compound?
Answer: Its value is 45 ± 4.4%.

Question: And the “concentration at which proliferation was inhibited” value (cell lines)?
Answer: Its value is at least 3 mM.

Question: What about the “decrease of intracellular pH” value (A2058 cells; [3]) of the same compound?
Answer: The value was “about 0.25 pH units”.

Question: What about the “intracellular pH with escalating concentrations” value (A2058 cells; [4]) of the same compound?
Answer: Its value is “remained almost constant”.
